Test [1] has as its target CDK2 (human) (UniProt P24941). The test can be described thus: Cell-Based Assay.
Test [2] has as its target CDK2 (human) (UniProt P24941). The test can be described thus: Cell-Based Assay. Particulars: rko.
For test [3], the target named is CDK2 (UniProt P24941). The test can be described thus: Enzyme Assay.
For test [4], the target named is CDK2 (human) (UniProt P24941). The test can be described thus: Cell-Based Assay. The note with it: hdf.

Data on seven molecules can be found in the Kinase Knowledgebase extract (Sharma et al. 2016).

SMILES strings stand for the structures.

In general, IC50 refers to the concentration at which inhibition is half-maximal. Lower therefore signals greater potency in that assay.

`CNS(=O)(=O)Cc1ccc(NN=C2C(=O)Nc3ccc4ncccc4c32)cc1`: the IC50 in test [1] (hdf) is greater than 5000 nM; in test [1] (hdf-3), 1100 to 5000 nM; in test [1] (rko) it was greater than 5000 nM; in test [2], 1100 to 5000 nM; in test [3], 1 to 10 nM; in test [4] it was greater than 5000 nM.

Turning to `CCC(C)Cc1cccc2c1C(=NNc1ccc(S(N)(=O)=O)cc1)C(=O)N2` (stereo not given), the IC50 was 1100 to 5000 nM in test [1] (hdf-3), 1100 to 5000 nM in test [2], 1 to 10 nM in test [3] and greater than 5000 nM in test [4].

As to `NS(=O)(=O)c1ccc(NN=C2C(=O)Nc3ccc(-c4cnco4)cc32)cc1`, the IC50 in test [1] (hdf) was 1100 to 5000 nM; in test [1] (hdf-3) it was 600 to 1000 nM; in test [1] (mda-mb-468), 600 to 1000 nM; in test [1] (mes/sa), 100 to 500 nM; in test [1] (rko), 600 to 1000 nM; in test [2] it was 600 to 1000 nM. For the same molecule, the IC50 in test [3] is 1 to 10 nM; in test [4] it was greater than 5000 nM.

On to `CN(C)S(=O)(=O)c1ccc(N/C=C2\C(=O)Nc3ccc(-c4cnco4)cc32)cc1`, for which the IC50 in test [1] (hdf-3) is greater than 5000 nM; in test [1] (mda-mb-468) it was greater than 5000 nM; in test [1] (mes/sa), greater than 5000 nM; in test [1] (rko), 1100 to 5000 nM; in test [2], 1100 to 5000 nM; in test [3], 1 to 10 nM. In test [4], the IC50 was greater than 5000 nM.

As to `O=C1Nc2ccc3ncsc3c2/C1=C/Nc1ccc2nn[nH]c2c1`, the IC50 in test [1] (hdf) was greater than 5000 nM; in test [1] (hdf-3), greater than 5000 nM; in test [1] (mda-mb-468) it was 1100 to 5000 nM; in test [2], greater than 5000 nM; in test [3] it was 11 to 50 nM; in test [4], greater than 5000 nM.

For `CS(=O)(=O)Cc1ccc(N/C=C2\C(=O)Nc3ccc4ncsc4c32)cc1`, the IC50 in test [1] (hdf) is greater than 5000 nM; in test [1] (hdf-3), 1100 to 5000 nM; in test [1] (mes/sa) it was 1100 to 5000 nM; in test [1] (rko) it was greater than 5000 nM; in test [2], 1100 to 5000 nM; in test [3] it was 11 to 50 nM. In test [4], this molecule registered an IC50 greater than 5000 nM.

On to `CNS(=O)(=O)Cc1ccc(NN=C2C(=O)Nc3cc(C)c(O)c(C)c32)cc1`, for which the IC50 was 600 to 1000 nM in test [1] (hdf); 1100 to 5000 nM in test [1] (hdf-3); greater than 5000 nM in test [1] (mes/sa); 100 to 500 nM in test [1] (rko); 100 to 500 nM in test [2]; 51 to 100 nM in test [3]. This molecule displayed an IC50 in test [4] greater than 5000 nM.
